Test results reported in US20050209278A1, “Piperidinyl- and piperazinyl-sulfonylmethyl hydroxamic acids and their use as protease inhibitors” (priority 2002, published 2005).

target: T1, MMP-1 (Homo sapiens, UniProt P03956); test: In vitro MMP inhibition, Ki determination (fluorogenic substrate II); format: biochemical; conditions: value not in parenthesis; read-out: MMP-1 Ki
T1 construct: made in house; host or cells: MMP-1-transfected HT-1080 cells (spent media)
T1 sequence (P03956 100-469): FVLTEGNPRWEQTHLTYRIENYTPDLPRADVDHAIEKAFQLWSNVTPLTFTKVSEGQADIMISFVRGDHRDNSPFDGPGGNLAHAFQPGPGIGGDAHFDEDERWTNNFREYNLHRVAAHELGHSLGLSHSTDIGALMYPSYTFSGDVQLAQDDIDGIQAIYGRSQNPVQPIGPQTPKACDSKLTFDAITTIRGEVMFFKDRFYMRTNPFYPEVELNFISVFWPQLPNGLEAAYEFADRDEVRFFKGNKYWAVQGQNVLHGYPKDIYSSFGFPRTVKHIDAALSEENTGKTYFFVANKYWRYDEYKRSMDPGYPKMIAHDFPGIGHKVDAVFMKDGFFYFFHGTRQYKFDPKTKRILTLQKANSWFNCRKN

Row | Structure (SMILES) | Ki
1 | COc1ccc(-c2ccc(N3CCN(S(=O)(=O)C4(C(=O)NO)CCOCC4)CC3)nc2)cc1 [Example 61] | 0.493 µM
2 | O=C(NO)C1(S(=O)(=O)N2CCN(c3ccc(OC(F)(F)C(F)F)cc3)CC2)CCSCC1 [Example 62] | 2.31 µM
3 | CCCCOc1ccc(N2CCN(S(=O)(=O)C3(C(=O)NO)CC3)CC2)cc1 [Example 63] | > 10 µM
4 | CCCCOc1ccc(N2CCN(S(=O)(=O)C3(C(=O)NO)CCN(c4ccc(OC(F)(F)C(F)F)cc4)CC3)CC2)cc1 [Example 65] | > 10 µM
5 | O=C(NO)C1(S(=O)(=O)N2CCN(c3ccc4c(c3)OC(F)(F)C(F)(F)O4)CC2)CCOCC1 [Example 67] | > 10 µM
6 | O=C(NO)C1(S(=O)(=O)N2CCN(c3ccc(COCC(F)(F)C(F)(F)F)cc3)CC2)CCOCC1 [Example 70] | > 10 µM
7 | CCCCOc1ccc(N2CCN(S(=O)(=O)C3(C(=O)NO)CCN(C(=O)c4ccco4)CC3)CC2)cc1 [Example 156] | > 10 µM
8 | CCCCOc1ccc(N2CCN(S(=O)(=O)C3(C(=O)NO)CCN(c4nccs4)CC3)CC2)cc1 [Example 157] | > 10 µM
9 | CCCCOc1ccc(N2CCN(S(=O)(=O)C3(C(=O)NO)CCN(c4ncccn4)CC3)CC2)cc1 [Example 159] | > 10 µM
10 | CCCCOc1ccc(N2CCN(S(=O)(=O)C3(C(=O)NO)CCN(C(=O)c4cccs4)CC3)CC2)cc1 [Example 160] | > 10 µM
11 | Cc1ccc(N2CCC(C(=O)NO)(S(=O)(=O)N3CCN(c4ccc(OCCCC(F)(F)F)cc4)CC3)CC2)cc1 [Example 161] | > 10 µM
12 | O=C(NO)C1(S(=O)(=O)N2CCN(c3ccc(OCCN4CCCC4)cc3)CC2)CCOCC1 [Example 162] | > 10 µM
13 | CCCCOc1ccc(N2CCN(S(=O)(=O)C3(C(=O)NO)CCN(CCOC)CC3)CC2)cn1 [Example 164] | > 10 µM
14 | CCCCOc1c(F)cc(N2CCN(S(=O)(=O)C3(C(=O)NO)CCN(CCOC)CC3)CC2)cc1F [Example 165] | > 10 µM
15 | COCCN1CCC(C(=O)NO)(S(=O)(=O)N2CCN(c3ccc(OCC(C)C)c(F)c3)CC2)CC1 [Example 166] | > 10 µM
16 | CCCCCc1ccc(N2CCN(S(=O)(=O)C3(C(=O)NO)CCOCC3)CC2)nc1 [Example 167] | 6.22 µM
17 | O=C(NO)C1(S(=O)(=O)N2CCN(c3ccccn3)CC2)CCOCC1 [Example 169] | 0.45 µM
18 | O=C(NO)C1(S(=O)(=O)N2CCN(c3ccc(SC(F)(F)F)cc3)CC2)CCOCC1 [Example 170] | 7.81 µM
19 | CCCc1ccc(N2CCN(S(=O)(=O)C3(C(=O)NO)CCN(c4ccc(C)cc4)CC3)CC2)cc1 [Example 171] | > 10 µM
20 | CCCCc1ccc(N2CCN(S(=O)(=O)C3(C(=O)NO)CCN(CCOC)CC3)CC2)cc1F [Example 173] | > 10 µM
21 | COCCN1CCC(C(=O)NO)(S(=O)(=O)N2CCN(c3ccc(C(C)=O)cc3)CC2)CC1 [Example 174] | 4.65 µM
22 | CCCNC(=O)c1ccc(N2CCN(S(=O)(=O)C3(C(=O)NO)CCN(CCOC)CC3)CC2)cc1 [Example 175] | > 10 µM
23 | COCCN1CCC(C(=O)NO)(S(=O)(=O)N2CCN(c3ccccn3)CC2)CC1 [Example 176] | 1.46 µM
24 | CCCCC(=O)c1ccc(N2CCN(S(=O)(=O)C3(C(=O)NO)CCN(CCOC)CC3)CC2)cc1 [Example 177] | 7.36 µM

Row | Structure (SMILES) | Ki
25 | CCCc1cnc(N2CCN(S(=O)(=O)C3(C(=O)NO)CCN(CCOC)CC3)CC2)nc1 [Example 178] | > 10 µM
26 | CCCC(C)Cc1ccc(N2CCN(S(=O)(=O)C3(C(=O)NO)CCN(CCOC)CC3)CC2)cc1 (stereo not drawn) [Example 189] | > 10 µM
27 | CCC(C)Cc1ccc(N2CCN(S(=O)(=O)C3(C(=O)NO)CCN(CCOC)CC3)CC2)cc1 (stereo not drawn) [Example 190] | > 10 µM
28 | COCCN1CCC(C(=O)NO)(S(=O)(=O)N2CCN(c3ccc(CCCCC(C)C)cc3)CC2)CC1 [Example 191] | > 10 µM
29 | COCCN1CCC(C(=O)NO)(S(=O)(=O)N2CCN(c3ccc(CC(C)C)cc3)CC2)CC1 [Example 192] | > 10 µM
30 | CCc1ccc(N2CCN(S(=O)(=O)C3(C(=O)NO)CCN(CCOC)CC3)CC2)cc1 [Example 193] | 7.18 µM
31 | COCCN1CCC(C(=O)NO)(S(=O)(=O)N2CCN(c3ccc(C)cc3)CC2)CC1 [Example 194] | 7.73 µM
32 | COCCN1CCC(C(=O)NO)(S(=O)(=O)N2CCN(c3ccccc3)CC2)CC1 [Example 195] | 2.98 µM
33 | COCCN1CCC(C(=O)NO)(S(=O)(=O)N2CCN(c3nc4ccccc4o3)CC2)CC1 [Example 196] | > 10 µM
34 | CCCCCc1ccc(N2CCN(S(=O)(=O)C3(C(=O)NO)CCOCC3)CC2)nn1 [Example 197] | > 10 µM
35 | O=C(NO)C1(S(=O)(=O)N2CCN(c3ccc(Cl)nn3)CC2)CCOCC1 [Example 198] | 8.65 µM
36 | CCCCCCc1ccc(N2CCN(S(=O)(=O)C3(C(=O)NO)CCN(CCOC)CC3)CC2)cc1 [Example 199] | > 10 µM
37 | CCCc1ccc(N2CCN(S(=O)(=O)C3(C(=O)NO)CCN(CCOC)CC3)CC2)cc1 [Example 200] | > 10 µM
38 | COCCN1CCC(C(=O)NO)(S(=O)(=O)N2CCN(c3ccc(Br)cc3)CC2)CC1 [Example 201] | 2.73 µM
39 | COCCN1CCC(C(=O)NO)(S(=O)(=O)N2CCN(c3ccc(OC(F)(F)F)cc3)CC2)CC1 [Example 202] | 7.52 µM
40 | O=C(NO)C1(S(=O)(=O)N2CCN(c3ccc(OC(F)(F)F)cc3)CC2)CCN(C2CC2)CC1 [Example 203] | 7.36 µM
41 | CCCCCc1ccc(N2CCN(S(=O)(=O)C3(C(=O)NO)CCN(S(N)(=O)=O)CC3)CC2)cc1 [Example 205] | > 10 µM
42 | CCCCCc1ccc(N2CCN(S(=O)(=O)C3(C(=O)NO)CCN(C(=O)CC)CC3)CC2)cc1 [Example 206] | > 10 µM
43 | Cc1ccc(-c2ccc(N3CCN(S(=O)(=O)C4(C(=O)NO)CCOCC4)CC3)cc2)cc1 [Example 207] | 3.25 µM
44 | O=C(NO)C1(S(=O)(=O)N2CCN(c3ccc(-c4ccc(F)cc4)cc3)CC2)CCOCC1 [Example 208] | 1.73 µM
45 | O=C(NO)C1(S(=O)(=O)N2CCN(c3cnc(CCCC(F)(F)F)cn3)CC2)CCOCC1 [Example 209] | > 10 µM
46 | O=C(NO)C1(S(=O)(=O)N2CCN(c3cnc(CCC(F)(F)C(F)(F)F)cn3)CC2)CCOCC1 [Example 210] | > 10 µM
47 | O=C(NO)C1(S(=O)(=O)N2CCN(c3ccc(OCC(F)(F)C(F)(F)F)cc3)CC2)CCOCC1 [Example 212] | 9.81 µM
48 | CC(C)Cc1ccc(N2CCN(S(=O)(=O)C3(C(=O)NO)CCOCC3)CC2)c(F)c1 [Example 213] | > 10 µM

Row | Structure (SMILES) | Ki
49 | CCCCc1nnc(N2CCN(S(=O)(=O)C3(C(=O)NO)CCOCC3)CC2)s1 [Example 214] | > 10 µM
50 | O=C(NO)C1(S(=O)(=O)N2CCN(c3nncs3)CC2)CCOCC1 [Example 215] | > 10 µM
51 | CCCc1nnc(N2CCN(S(=O)(=O)C3(C(=O)NO)CCOCC3)CC2)s1 [Example 216] | > 10 µM
52 | CCCCc1ccc(N2CCN(S(=O)(=O)C(C)C(=O)NO)CC2)nc1 (stereo not drawn) [Example 217] | > 10 µM
53 | O=C(NO)C1(S(=O)(=O)N2CCN(c3cnc(CCC(F)(F)F)cn3)CC2)CCOCC1 [Example 218] | > 10 µM
54 | CCCCCc1cnc(N2CCN(S(=O)(=O)C3(C(=O)NO)CCOCC3)CC2)cn1 [Example 219] | > 10 µM
55 | CCCCOc1ccc(N2CCN(S(=O)(=O)C3(C(=O)NO)CCN(c4ccc5c(c4)OCO5)CC3)CC2)cc1 [Example 221] | > 10 µM
56 | CCCCOc1ccc(N2CCN(S(=O)(=O)C3(C(=O)NO)CCS(=O)(=O)CC3)CC2)cc1 [Example 222] | > 10 µM
57 | CCCCOc1ccc(N2CCN(S(=O)(=O)C3(C(=O)NO)CCN(c4ccsc4)CC3)CC2)cc1 [Example 223] | > 10 µM
58 | CCCCOc1ccc(N2CCN(S(=O)(=O)C3(C(=O)NO)CCN(c4ccc(C#N)cc4)CC3)CC2)cc1 [Example 225] | > 10 µM
59 | CCCCOc1ccc(N2CCN(S(=O)(=O)C3(C(=O)NO)CCN(c4cccc(C)c4)CC3)CC2)cc1 [Example 226] | > 10 µM
60 | COCCSc1ccc(N2CCN(S(=O)(=O)C3(C(=O)NO)CCOCC3)CC2)cc1 [Example 227] | 9.28 µM
61 | CCCCOc1ccc(N2CCN(S(=O)(=O)C3(C(=O)NO)CCN(c4ccc(OC)c(OC)c4)CC3)CC2)cc1 [Example 229] | > 10 µM
62 | CCCCOc1ccc(N2CCN(S(=O)(=O)C3(C(=O)NO)CCN(C(=O)N4CCN(C)CC4)CC3)CC2)cc1 [Example 230] | > 10 µM
63 | CCCCOc1ccc(N2CCN(S(=O)(=O)C3(C(=O)NO)CCN(C(=O)N4CCCC4)CC3)CC2)cc1 [Example 231] | > 10 µM
64 | CCCCOc1ccc(N2CCN(S(=O)(=O)C3(C(=O)NO)CCSCC3)CC2)cc1 [Example 232] | > 10 µM
65 | CCCCOc1ccc(N2CCN(S(=O)(=O)C3(C(=O)NO)CCN(CCN4CCOCC4)CC3)CC2)cc1 [Example 233] | > 10 µM
66 | CCOCCSc1ccc(N2CCN(S(=O)(=O)C3(C(=O)NO)CCOCC3)CC2)cc1 [Example 234] | > 10 µM
67 | CCCCOc1ccc(N2CCN(S(=O)(=O)C3(C(=O)NO)CCN(CCN(CC)CC)CC3)CC2)cc1 [Example 235] | > 10 µM
68 | CCCCCc1ccc(N2CCN(S(=O)(=O)C3(C(=O)NO)CCN(S(=O)(=O)N(C)C)CC3)CC2)cc1 [Example 236] | > 10 µM
69 | CCCCCc1ccc(N2CCN(S(=O)(=O)C3(C(=O)NO)CCN(S(C)(=O)=O)CC3)CC2)cc1 [Example 237] | > 10 µM
70 | CCCCOc1ccc(N2CCN(S(=O)(=O)C3(C(=O)NO)CCN(CCCC(F)(F)F)CC3)CC2)cc1 [Example 238] | > 10 µM
71 | CCCCCc1ccc(N2CCN(S(=O)(=O)C3(C(=O)NO)CCN(C(C)=O)CC3)CC2)cc1 [Example 239] | > 10 µM
72 | CCCCOc1ccc(N2CCN(S(=O)(=O)C3(C(=O)NO)CCN(C(=O)NC(C)(C)C)CC3)CC2)cc1 [Example 240] | > 10 µM
